The experiment concerns glycogen synthase. Kind of experiment: Glycogen Synthase (GS) Assay. The class given is biochemical. To be noted: for EC50: compound concentration needed to give 50% maximum activation; for GS SC200: compound concentration needed to stimulate 200% of the enzyme activity. The method, then:
Twelve μl per well of substrate solution containing glycogen (4.32 mg/ml), 2.67 mM UDP-glucose, 21.6 mM phospho(enol)pyruvate and 2.7 mM NADH in 30 mM glycylglycine, pH 7.3 buffer was added into a polystyrene 384-well assay plate (BD Biosciences).
Compound solutions (8 μl/well) at various concentrations (0-300 μM) were added to the assay plate (columns 5-24). Compound solution contains 30 mM glycylglycine, pH 7.3, 40 mM KCl, 20 mM MgCl2, 9.2% DMSO, with (columns 15-24) or without (columns 5-14) 20 mM glucose 6-phosphate.
Enzyme solution (12 μl/well) containing glycogen synthase (16.88 μg/ml), pyruvate kinase (0.27 mg/ml), lactate dehydrogenase (0.27 mg/ml) in 50 mM Tris-HCl, pH 8.0, 27 mM DTT and bovine serum albumin (BSA, 0.2 mg/ml) was added to the assay plate (columns 3-24). As a blank control, enzyme solution without glycogen synthase was added into the top half wells of columns 1-2. To the bottom half wells of columns 1-2 were added a known activator, glucose 6-phosphate (at final concentration 5 mM) in addition to the enzyme solution. The reaction mixture was incubated at room temperature. The assay plate was then read for absorbance at 340 nm on an Envision reader every 3 minutes up to a total of 15 minutes.
The enzyme activity (with or without compound) was calculated by the reaction rate and represented by the optical density change (μOD) per minute. Percent stimulation of glycogen synthase activity by a compound at various concentrations was calculated by the following formula: […]
wherein Rs is the reaction rate of the enzyme in the presence of compound and Rt is the reaction rate of the enzyme in the absence of compound.
SC200 is defined as the compound concentration that is needed to stimulate 200% of the enzyme activity. EC50 is defined as the compound concentration that is needed to give 50% maximum activation.

Usually EC50 stands for the concentration giving half of the maximal effect. In the case of `COc1cc(F)c(F)cc1-c1ccc(OCc2ccc3onc(N)c3c2)cc1` [Example 1, 5-(4′,5′-Difluoro-2′-methoxy-biphenyl-4-yloxymethyl)-benzo[d]isoxazol-3-ylamine], it took 1490 nM to reach a half-maximal effect (EC50) and the “GS SC200” value stood at 0.688 µM.
The like results for `CNc1noc2ccc(COc3ccc(-c4cc(F)c(F)cc4OC)cc3)cc12` [Example 2] were, in that order, 1970 nM and 0.514 µM.
For `COc1cc(F)c(F)cc1-c1ccc(OCc2ccc3onc(N(C)CC(=O)O)c3c2)cc1` [Example 3], in that order: 302 nM and 0.024 µM.
For `COc1cc(F)c(F)cc1-c1ccc(OCc2ccc3onc(O)c3c2)cc1` [Example 4, 5-(4′,5′-Difluoro-2′-methoxy-biphenyl-4-yloxymethyl)-benzo[d]isoxazol-3-ol], in that order: 172 nM and 0.032 µM.
Take `COc1cc(F)c(F)cc1-c1ccc(OCc2ccc3onc(OCC(=O)O)c3c2)cc1` [Example 5, [5-(4′,5′-Difluoro-2′-methoxy-biphenyl-4-yloxymethyl)-benzo[d]isoxazol-3-yloxy]-acetic acid]: the EC50 was 1350 nM and the “GS SC200” value was found to be 0.492 µM.
For `COc1cc(F)c(F)cc1-c1ccc(OCc2ccc3onc(OC(C)(C)C(=O)O)c3c2)cc1` [Example 6, 2-[5-(4′,5′-Difluoro-2′-methoxy-biphenyl-4-yloxymethyl)-benzo[d]isoxazol-3-yloxy]-2-methyl-propionic acid], in that order: 777 nM and 0.348 µM.
For the molecule `COc1cc(F)c(F)cc1-c1ccc(OCc2ccc3onc(OC(C)C(=O)O)c3c2)cc1` (stereo not shown) [Example 7, 2-[5-(4′,5′-Difluoro-2′-methoxy-biphenyl-4-yloxymethyl)-benzo[d]isoxazol-3-yloxy]-propionic acid], the EC50 turned out to be 662 nM and the “GS SC200” value worked out at 0.218 µM.
The like results for `COc1cc(F)c(F)cc1-c1ccc(OCc2ccc3onc(OC(C(=O)O)c4ccccc4)c3c2)cc1` (stereo not shown) [Example 8, [5-(4′,5′-Difluoro-2′-methoxy-biphenyl-4-yloxymethyl)-benzo[d]isoxazol-3-yloxy]-phenyl-acetic acid] were, in that order, 1760 nM and 0.723 µM.
For `COc1cc(F)c(F)cc1-c1ccc(OCc2ccc3onc(OCCC(=O)O)c3c2)cc1` [Example 9, 3-[5-(4′,5′-Difluoro-2′-methoxy-biphenyl-4-yloxymethyl)-benzo[d]isoxazol-3-yloxy]-propionic acid], in that order: 1700 nM and 0.61 µM.
For `Oc1noc2c(COc3ccc(-c4cc(F)c(F)cc4F)cc3)cccc12` [Example 10, 7-(2′,4′,5′-Trifluoro-biphenyl-4-yl-oxymethyl)-benzo[d]isoxazol-3-ol], in that order: 836 nM and 0.148 µM.
Regarding `COc1cc(F)c(F)cc1-c1ccc(OCc2cccc3c(O)noc23)cc1` [Example 11, 7-(4′,5′-Difluoro-2′-methoxy-biphenyl-4-yloxymethyl)-benzo[d] isoxazol-3-ol], the midpoint of the response, the EC50, lay at 158 nM and the “GS SC200” value worked out at 0.014 µM.
The like results for `Oc1noc2c(COc3ccc(-c4cc(F)c(F)cc4Cl)cc3)cccc12` [Example 12, 7-(2′-Chloro-4′,5′-difluoro-biphenyl-4-yloxymethyl)-benzo[d]isoxazol-3-ol] were, in that order, 702 nM and 0.406 µM.
For `Cc1cc(F)c(F)cc1-c1ccc(OCc2cccc3c(O)noc23)cc1` [Example 13, 7-(4′,5′-Difluoro-2′-methyl-biphenyl-4-yloxymethyl)-benzo[d]isoxazol-3-ol], in that order: 792 nM and 0.523 µM.
For the molecule `COCCN(CC(=O)O)c1noc2ccc(COc3ccc(-c4cc(F)c(F)cc4OC)cc3)cc12` [Example 14, [[5-(4′,5′-Difluoro-2′-methoxy-biphenyl-4-yloxymethyl)-benzo[d]isoxazol-3-yl]-(2-methoxy-ethyl)-amino]-acetic acid], the EC50 stood at 365 nM and the “GS SC200” value stood at 0.098 µM.
Regarding `COCCCN(CC(=O)O)c1noc2ccc(COc3ccc(-c4cc(F)c(F)cc4OC)cc3)cc12` [Example 15, [[5-(4′,5′-Difluoro-2′-methoxy-biphenyl-4-yloxymethyl)-benzo[d]isoxazol-3-yl]-(3-methoxy-propyl)-amino]-acetic acid], it took 514 nM to reach a half-maximal effect (EC50) and the “GS SC200” value stood at 0.169 µM.
The like results for `CCN(CC(=O)O)c1noc2ccc(COc3ccc(-c4cc(F)c(F)cc4OC)cc3)cc12` [Example 16, {[5-(4′,5′-Difluoro-2′-methoxy-biphenyl-4-yloxymethyl)-benzo[d]isoxazol-3-yl]-ethyl-amino}-acetic acid] were, in that order, 631 nM and 2.18 µM.
On to `COc1cc(F)c(F)cc1-c1ccc(OCc2ccc3onc(N(CC(=O)O)CC4CC4)c3c2)cc1` [Example 17], for which the EC50 turned out to be 1160 nM and the “GS SC200” value amounted to 0.438 µM.
For `COc1cc(F)c(F)cc1-c1ccc(OCc2ccc3onc(N(CC(=O)O)CC4CCOCC4)c3c2)cc1` [Example 18, [[5-(4′,5′-Difluoro-2′-methoxy-biphenyl-4-yloxymethyl)-benzo[d]isoxazol-3-yl]-(tetrahydro-pyran-4-ylmethyl)-amino]-acetic acid], in that order: 713 nM and 0.249 µM.
With `COc1cc(F)c(F)cc1-c1ccc(OCc2cccc3c(N(C)CC(=O)O)noc23)cc1` [Example 19, {[7-(4′,5′-Difluoro-2′-methoxy-biphenyl-4-yloxymethyl)-benzo[d]isoxazol-3-yl]-methyl-amino}-acetic acid], the midpoint of the response, the EC50, lay at 4220 nM and the “GS SC200” value worked out at 1.57 µM.
The like results for `Oc1noc2ccc(COc3ccc(-c4cc(F)c(F)cc4F)cc3)cc12` [Example 20, 5-(2′,4′,5′-Trifluoro-biphenyl-4-yloxymethyl)-benzo[d]isoxazol-3-ol] were, in that order, 422 nM and 0.247 µM.

The record behind these values is US20110112158A1, “BENZISOXAZOLE ANALOGS AS GLYCOGEN SYNTHASE ACTIVATORS” (priority 2009, published 2011).
